Data set [1] relates to L. infantum strain MCAN/ES/92/BCN722 promastigote forms. Briefly: Activity against promastigotes of L. infantum (acid phosphatase). Type of data set: cell-based, Leishmania infantum. Conditions: promastigote form, mean ± SD of duplicate experiments performed at least twice.
Data set [2] has as its system T. cruzi strain MHOM/ES/2203/BCN590 (Tcl) epimastigote forms. Briefly: Activity against epimastigotes of T. cruzi (cell counting). Conditions: Trypanosoma cruzi, read-out: T. cruzi IC50, epimastigote form; mean ± SD of duplicate experiments performed at least twice.
The target of data set [3] is Electrophorus electricus AChE (EeAChE) (Electrophorus electricus, UniProt O42275). Briefly: biochemical. Type of data set: biochemical. The following applies: mean ± SEM.
Sequence of Electrophorus electricus AChE (EeAChE) (O42275 24-633): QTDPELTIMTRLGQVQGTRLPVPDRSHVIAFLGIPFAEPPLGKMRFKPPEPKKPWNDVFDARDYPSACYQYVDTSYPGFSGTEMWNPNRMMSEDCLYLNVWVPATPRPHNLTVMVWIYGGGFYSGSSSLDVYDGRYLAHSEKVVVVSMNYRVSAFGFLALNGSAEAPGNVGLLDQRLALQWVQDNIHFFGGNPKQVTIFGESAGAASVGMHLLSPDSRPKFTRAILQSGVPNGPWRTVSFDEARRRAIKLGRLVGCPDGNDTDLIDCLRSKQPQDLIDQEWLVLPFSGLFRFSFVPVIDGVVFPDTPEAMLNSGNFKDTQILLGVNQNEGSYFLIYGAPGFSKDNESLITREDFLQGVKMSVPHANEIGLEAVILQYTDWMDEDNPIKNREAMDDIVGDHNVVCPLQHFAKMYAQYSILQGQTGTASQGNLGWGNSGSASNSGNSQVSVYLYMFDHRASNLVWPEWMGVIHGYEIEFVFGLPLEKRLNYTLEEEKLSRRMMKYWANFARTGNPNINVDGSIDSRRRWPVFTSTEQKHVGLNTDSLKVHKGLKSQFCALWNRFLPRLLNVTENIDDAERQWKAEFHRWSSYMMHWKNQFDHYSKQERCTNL
For data set [4] the following is noted: for Pe: PAMPA-BBB, PBS:EtOH 70:30, mean ± SD of three independent experiments; for Pe (prediction) of BBB permeation: class from PAMPA-BBB Pe.
Experimental: Thus, the brain passive permeability of the novel compounds was evaluated in vitro through the widely used PAMPA-BBB method [[50]
The subject of data set [5] is rat skeletal myoblast L6 cells. Kind of data set: cells. Conditions: L6, read-out: L6 cells IC50.
Experimental: (§1) Cytotoxicity against mammalian cells was assessed using microtitre plates following a described procedure [58]. Briefly, rat skeletal muscle L6 cells were seeded at 1 × 10^4 mL^−1 in 200 μL of growth medium containing different compound concentrations. The plates were incubated for 6 days at 37 °C and 20 μL resazurin was then added to each well. After a further 8 h incubation, the fluorescence was determined using a Spectramax plate reader.
Data set [6] deals with bloodstream form T. brucei (strain 221). Briefly: Trypanocidal activity against cultured bloodstream form T. brucei (resazurin). The following applies: for IC50: mean of triplicate ± SEM; for IC90: pH 7.4, read-out: T. brucei IC90.
Experimental: T. brucei in the logarithmic phase of growth were diluted back to 2.5 × 10^4 mL^−1 and aliquoted into 96-well plates. The compounds were then added at a range of concentrations and the plates incubated at 37 °C. Each drug concentration was tested in triplicate. Resazurin was added after 48 h and the plates incubated for a further 16 h and the plates then read in a Spectramax plate reader. Results were analysed using GraphPad Prism.
A further data set can be described thus: in vitro. Conditions: rat, rat skeletal muscle L6 cells.
Where [7] appears, read: Trypanosoma brucei, pH 7.4, read-out: T. brucei IC50, bloodstream form, pH 7.4.
[8] abbreviates: SILi: selectivity index as the ratio of cytotoxic to anti-L. infantum IC50 values, L6 IC50 / L. infantum IC50.
The mark [9] stands for this setting: SITb: selectivity index as the ratio of cytotoxic to anti-T. brucei IC50 values, L6 IC50 / T. brucei IC50.
[10] abbreviates: SITc: selectivity index as the ratio of cytotoxic to anti-T. cruzi IC50 values, L6 IC50 / T. cruzi IC50.
Setting [11] is: read-out: T. brucei IC50, bloodstream form, pH 7.4.

These results are taken from PMC4638191, “Multicomponent reaction-based synthesis and biological evaluation of tricyclic heterofused quinolines with multi-trypanosomatid activity” (European Journal of Medicinal Chemistry, 2015).

A word on the IC50: it is the concentration that inhibits the measured activity by half. Usually IC90 stands for the concentration needed for an effect of 90%.

Read-outs that look alike come from different tables or passages of the source.

Experimental for in vitro: as §1

`NCc1ccc(-c2nc3ccc(Cl)cc3c3c2CCCN3)cc1` [Compound 31, 4-{9-Chloro-1,2,3,4-tetrahydrobenzo[h][1,6]naphthyridin-5-yl}benzylamine]: the IC50 stood at 11.6 ± 2.5 µM in data set [1] (Leishmania infantum); 50.5 ± 14.3 µM in data set [2]; 0.97 ± 0.02 µM in data set [3]; 8.92 ± 0.25 µM in data set [5]; 2.44 ± 0.13 µM in data set [6] (setting [7]). Also, the Pe in data set [4] is listed as 4.6 ± 0.2 10^−6 cm s^−1. Further, in data set [6] (Trypanosoma brucei), the IC90 is 3.48 ± 0.05 µM. Also, the selectivity ratio at 6 days in “in vitro” (setting [8]) is 0.8; in the data set “in vitro” (setting [9]), 3.7; in “in vitro” (setting [10]), 0.2.

Turning to `OCCCc1cc2cc(Cl)ccc2nc1-c1ccco1` [Compound 44, 3-[6-chloro-2-(2-furyl)quinolin-3-yl]-1-propanol], the IC50 is 19.3 ± 11.3 µM in data set [1] (Leishmania infantum), 29.3 ± 12 µM in data set [2], over 25 µM in data set [6] (setting [7]) and 35.7 ± 1.8 µM in data set [6] (setting [11]). The Pe in data set [4] is reported as 10.3 ± 1.5 10^−6 cm s^−1. Further, the “Pe (prediction) of BBB permeation” value in data set [4] was “CNS+ (compounds of high BBB permeation (CNS+): Pe (10^−6 cm s^−1) > 5.25)”. The IC90 in data set [6] (Trypanosoma brucei) stood at 70.6 ± 1.5 µM.

In the case of `N#Cc1ccc(-c2nc3ccc(Cl)cc3c3c2CCN3)cc1` [Compound 26, 4-{8-Chloro-2,3-dihydro-1H-pyrrolo[3,2-c]quinolin-4-yl}benzonitrile], the IC50 is over 200 µM in data set [1] (Leishmania infantum), over 150 µM in data set [2], 1.19 ± 0.15 µM in data set [3] and over 30 µM in data set [6] (setting [7]). In data set [4], the Pe is 6.8 ± 0.3 10^−6 cm s^−1. In data set [4], the “Pe (prediction) of BBB permeation” value was “CNS+ (compounds of high BBB permeation (CNS+): Pe (10^−6 cm s^−1) > 5.25)”. Besides, the IC90 in data set [6] (Trypanosoma brucei) is over 30 µM.

Regarding `N#Cc1ccc(-c2nc3cc(Cl)ccc3c3c2CCCN3)cc1` [Compound 29, 4-{8-Chloro-1,2,3,4-tetrahydrobenzo[h][1,6]naphthyridin-5-yl}benzonitrile], the half-maximal inhibitory concentration (IC50) in data set [1] (Leishmania infantum) is 19 ± 3 µM; in data set [2] it was 39.4 ± 0.2 µM; in data set [3], 3.27 ± 0.43 µM; in data set [6] (setting [7]), over 30 µM. In addition, in data set [4], the Pe is reported as 16.2 ± 0.1 10^−6 cm s^−1. Also, the “Pe (prediction) of BBB permeation” value in data set [4] was “CNS+ (compounds of high BBB permeation (CNS+): Pe (10^−6 cm s^−1) > 5.25)”. In addition, in data set [6] (Trypanosoma brucei), the IC90 was over 30 µM.

Regarding `OCCCc1cc2cc(Cl)ccc2nc1-c1cccs1` [Compound 45, 3-[6-chloro-2-(2-thienyl)quinolin-3-yl]-1-propanol], the concentration for half-maximal inhibition (IC50) was 37.3 ± 2.3 µM in data set [1] (Leishmania infantum), 51.7 ± 19.4 µM in data set [2], over 25 µM in data set [6] (setting [7]) and 28 ± 0.7 µM in data set [6] (setting [11]). Besides, the Pe in data set [4] is listed as 28.4 ± 1.2 10^−6 cm s^−1. In addition, the “Pe (prediction) of BBB permeation” value in data set [4] is on record as “CNS+ (compounds of high BBB permeation (CNS+): Pe (10^−6 cm s^−1) > 5.25)”. Besides, the IC90 in data set [6] (Trypanosoma brucei) was found to be 42.9 ± 1.5 µM.

Consider `Clc1ccc2nc(-c3cccs3)c3c(c2c1)OCCC3` [Compound 43, 9-Chloro-3,4-dihydro-5-(2-thienyl)-2H-pyrano[3,2-c]quinoline], for which the IC50 was 51.4 ± 2.3 µM in data set [1] (Leishmania infantum), over 250 µM in data set [2], 9.39 ± 0.82 µM in data set [3] and 18 ± 0.4 µM in data set [6] (setting [7]). For the same compound, in data set [4], the Pe is reported as 14.4 ± 1.6 10^−6 cm s^−1. For the same compound, the “Pe (prediction) of BBB permeation” value in data set [4] is “CNS+ (compounds of high BBB permeation (CNS+): Pe (10^−6 cm s^−1) > 5.25)”. Besides, the IC90 in data set [6] (Trypanosoma brucei) came out at 27.6 ± 1.1 µM.

For the compound `N#CCCc1cc2cc(Cl)ccc2nc1-c1cccs1` [Compound 47, 3-[6-Chloro-2-(2-thienyl)quinolin-3-yl]propanenitrile], the IC50 in data set [1] (Leishmania infantum) is 23.3 ± 5.9 µM; in data set [2], 51.7 ± 5.1 µM; in data set [6] (setting [7]) it was over 25 µM; in data set [6] (setting [11]) it was over 30 µM. For the same compound, the Pe in data set [4] was 17.9 ± 1.1 10^−6 cm s^−1. In data set [4], the “Pe (prediction) of BBB permeation” value is “CNS+ (compounds of high BBB permeation (CNS+): Pe (10^−6 cm s^−1) > 5.25)”. In addition, the concentration for an effect of 90% (IC90) in data set [6] (Trypanosoma brucei) was over 30 µM.

With `N#Cc1ccc(-c2nc3cc(Cl)ccc3cc2CCCN)cc1` [Compound 35, 4-[3-(3-Aminopropyl)-7-chloroquinolin-2-yl]benzonitrile], the IC50 in data set [1] (Leishmania infantum) is about 15 µM; in data set [1] it was 16.2 ± 4 µM; in data set [2], 78.8 ± 1.7 µM; in data set [5], 20.4 ± 0.4 µM; in data set [6] (setting [7]), about 5 µM; in data set [6] (setting [11]), 4.16 ± 0.07 µM. The Pe in data set [4] is given as 18.3 ± 0.6 10^−6 cm s^−1. In addition, the “Pe (prediction) of BBB permeation” value in data set [4] is on record as “CNS+ (compounds of high BBB permeation (CNS+): Pe (10^−6 cm s^−1) > 5.25)”. In addition, in data set [6] (Trypanosoma brucei), the concentration for an effect of 90% (IC90) came out at 5.61 ± 0.05 µM. Also, the selectivity ratio at 6 days in “in vitro” (setting [8]) turned out to be 1.3; in the data set “in vitro” (setting [9]) it was 4.9; in “in vitro” (setting [10]), 0.3.

As for `Clc1ccc2nc(-c3ccco3)c3c(c2c1)OCCC3` [Compound 42, 9-Chloro-5-(2-furyl)-3,4-dihydro-2H-pyrano[3,2-c]quinoline], the IC50 in data set [1] (Leishmania infantum) amounted to 38.4 ± 21.6 µM; in data set [2], 76.1 ± 7.8 µM; in data set [3], 16.3 ± 1.5 µM; in data set [6] (setting [7]), 21.7 ± 1.2 µM. Besides, in data set [4], the Pe is 3.5 ± 0.4 10^−6 cm s^−1. The IC90 in data set [6] (Trypanosoma brucei) amounted to 29.3 ± 0.5 µM.

`N#Cc1ccc([C@H]2Nc3ccc(Cl)cc3[C@@H]3OCCC[C@H]23)cc1` [Compound 37]: the half-inhibitory concentration (IC50) in data set [1] (Leishmania infantum) is over 200 µM; in data set [2], 676 ± 37 µM; in data set [6] (setting [7]) it was over 30 µM. Further, in data set [4], the Pe was 7.0 ± 0.7 10^−6 cm s^−1. The “Pe (prediction) of BBB permeation” value in data set [4] is reported as “CNS+ (compounds of high BBB permeation (CNS+): Pe (10^−6 cm s^−1) > 5.25)”. In addition, the IC90 in data set [6] (Trypanosoma brucei) was over 30 µM.

As to `CCN(CC)CCCc1cc2cc(Cl)ccc2nc1-c1cccs1` [Compound 50, N-{3-[6-Chloro-2-(2-thienyl)quinolin-3-yl]propyl}-N,N-diethylamine], the IC50 is about 15 µM in data set [1] (Leishmania infantum); 13.6 ± 1.5 µM in data set [1]; 77.6 ± 11.2 µM in data set [2]; 14.7 ± 2.3 µM in data set [5]; about 5 µM in data set [6] (setting [7]); 6.33 ± 0.94 µM in data set [6] (setting [11]). Also, in data set [4], the Pe was 20.9 ± 0.5 10^−6 cm s^−1. For the same compound, in data set [4], the “Pe (prediction) of BBB permeation” value is “CNS+ (compounds of high BBB permeation (CNS+): Pe (10^−6 cm s^−1) > 5.25)”. For the same compound, the IC90 in data set [6] (Trypanosoma brucei) turned out to be 12.6 ± 0.9 µM. For the same compound, the results for the selectivity ratio at 6 days in “in vitro” (setting [8]), in the data set “in vitro” (setting [9]) and in “in vitro” (setting [10]) were 1.1, 2.3 and 0.2, respectively.

As for `N#Cc1ccc(-c2nc3ccc(Cl)cc3c3c2CCCCN3)cc1` [Compound 28, 4-{10-Chloro-2,3,4,5-tetrahydro-1H-azepino[3,2-c]quinolin-6-yl}benzonitrile], the IC50 in data set [1] (Leishmania infantum) was found to be 13.7 ± 2.2 µM; in data set [2] it was 64.6 ± 12.5 µM; in data set [3], 2.2 ± 0.3 µM; in data set [6] (setting [7]) it was 17.3 ± 2.1 µM. Also, the Pe in data set [4] is 20.0 ± 1.1 10^−6 cm s^−1. In data set [4], the “Pe (prediction) of BBB permeation” value is reported as “CNS+ (compounds of high BBB permeation (CNS+): Pe (10^−6 cm s^−1) > 5.25)”. In addition, the IC90 in data set [6] (Trypanosoma brucei) turned out to be 28.6 ± 6.7 µM.
